Molecular target: T1, endothelial lipase (EL) (Homo sapiens, UniProt Q9Y5X9)
T1 construct: EL is released as secretory protein in high concentration into cell culture medium (conditioned medium) by recombinant cell lines (CHO, HEK293); made in house; host or cells: recombinant cell lines (CHO, HEK293); concentrated conditioned medium used as enzyme solution
T1 sequence (Q9Y5X9 21-500): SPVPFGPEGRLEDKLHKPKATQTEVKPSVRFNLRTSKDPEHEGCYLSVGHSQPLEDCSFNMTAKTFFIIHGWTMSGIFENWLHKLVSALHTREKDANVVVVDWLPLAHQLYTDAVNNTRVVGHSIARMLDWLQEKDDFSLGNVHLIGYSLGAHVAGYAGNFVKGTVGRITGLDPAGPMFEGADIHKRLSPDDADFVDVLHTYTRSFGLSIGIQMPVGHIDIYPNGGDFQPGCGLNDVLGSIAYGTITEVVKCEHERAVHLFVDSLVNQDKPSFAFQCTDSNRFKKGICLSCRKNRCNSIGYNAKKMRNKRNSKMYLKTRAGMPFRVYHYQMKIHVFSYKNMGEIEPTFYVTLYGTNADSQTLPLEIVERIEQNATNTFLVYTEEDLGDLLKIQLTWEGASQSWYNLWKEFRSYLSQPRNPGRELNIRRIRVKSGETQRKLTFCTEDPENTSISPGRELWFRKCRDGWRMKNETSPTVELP
Test: EL inhibition assay (EL activity assay, fluorescent Bodipy phospholipid substrate)
Assay type: biochemical
Details: EL from conditioned medium of recombinant cell lines (CHO, HEK293); 37° C., 90 minutes; HPTLC fluorescence read-out
From the text: EL is released as secretory protein in high concentration into cell culture medium (conditioned medium) by recombinant cell lines (CHO, HEK293). This was employed as enzyme solution after concentration.
The phospholipase-specific substrate 1,2-bis(4,4-difluoro-5,7-dimethyl-4-bora-3a,4a-diaza-s-indacene-3-undecanoyl)-sn-glycero-3-phosphocholine, (manufacturer Molecular Probes) was used to characterize the enzymatic activity of endothelial lipase and the effect of inhibitors. Hydrolysis of the A1 ester linkage of this phospholipid by the enzyme liberates a fatty acid labeled with the fluorescent dye Bodipy which can be detected after separation by thin-layer chromatography on an HPTLC plate (silica gel 60, Merck) or directly in the reaction vessel by measuring the fluorescence.
The substrate solution was prepared by 100 μg of 1,2-bis(4,4-difluoro-5,7-dimethyl-4-bora-3a,4a-diaza-s-indacene-3-undecanoyl)-sn-glycero-3-phospho-choline (manufacturer Molecular Probes) being dissolved in 100 μl of DMSO and taken up with 2.4 mg of tripalmitin (Sigma) in 393 μl of chloroform which contained 20 mg/ml DOP-choline (1,2-dioleoyl-sn-glycero-3-phosphocholine). 39.3 μl of this lipid mixture were transferred into a fresh reaction vessel and the solvent was evaporated. The lipid mixture was dissolved in 4 ml of 200 mM TRIS-HCl, 150 mM sodium chloride, pH=7.4, by sonication twice. The subsequent enzymic reaction took place at 37° C. for 90 minutes. For this purpose, 20 μl of the substrate solution were incubated with 2 μl of inhibitor of appropriate concentration (dissolved in 10% DMSO, using 10% DMSO solution for control) and 2 μl of enzyme solution (conditioned medium). Then 4 μl of the assay mixture were loaded onto an HPTLC plate (silica gel 60, Merck), and the liberated fluorescent dye was separated for detection with an eluent (diethyl ether:petroleum benzene:acetic acid [78:22:1]). After evaporation of the eluent, the plate was read in a fluorescence scanner. An increased liberation of the fluorescent dye in the uninhibited reaction was to be observed as a measure of the enzymic activity.
The enzymatic activity was reduced as a function of the inhibitor concentration used. The inhibitor concentration at which a half-maximum enzymatic activity is observed is called IC50.

Row | Structure (SMILES) | IC50 [µM]
1 | CCCCCCNC(=O)n1c(=O)c2c(C)cc(Cl)nc2n1Cc1ccccc1 [Example 15, 1-Benzyl-6-chloro-4-methyl-3-oxo-1,3-dihydropyrazolo[3,4-b]pyridine-2-carboxylic acid hexylamide] | 0.057
2 | CCCCn1c2nc(Cl)cc(C)c2c(=O)n1C(=O)NCCc1cccs1 [Example 11, 1-Butyl-6-chloro-4-methyl-3-oxo-1,3-dihydropyrazolo[3,4-b]pyridine-2-carboxylic acid (2-thiophen-2-ylethyl)amide] | 1.23
3 | Cc1cc(Cl)nc2[nH]n(C(=O)NC3CCCc4ccccc43)c(=O)c12 (stereo not shown) [Example 9, 6-Chloro-4-methyl-3-oxo-1,3-dihydropyrazolo[3,4-b]pyridine-2-carboxylic acid (1,2,3,4-tetrahydronaphthalen-1-yl)amide] | 1.21
4 | Cc1cc(Cl)nc2[nH]n(C(=O)N[C@@H]3CCc4ccccc43)c(=O)c12 [Example 8, 6-Chloro-4-methyl-3-oxo-1,3-dihydropyrazolo[3,4-b]pyridine-2-carboxylic acid (R)-indan-1-ylamide] | 0.091
5 | Cc1cc(Cl)nc2c1c(=O)n(C(=O)N[C@H]1CCc3ccccc31)n2C [Example 13, 6-Chloro-1,4-dimethyl-3-oxo-1,3-dihydropyrazolo[3,4-b]pyridine-2-carboxylic acid (S)-indan-1-ylamide] | 0.204

These reach a lower IC50. Values come first.

Row | IC50 [µM] | Structure (SMILES)
6 | 0.043 | CCCCCCNC(=O)n1oc2ncccc2c1=O [Example 6, 3-Oxo-3H-isoxazolo[5,4-b]pyridine-2-carboxylic acid hexylamide]
7 | 0.029 | Cc1cc(Cl)nc2c1c(=O)n(C(=O)NC1CCCc3ccccc31)n2C (stereo not shown) [Example 12, 6-Chloro-1,4-dimethyl-3-oxo-1,3-dihydropyrazolo[3,4-b]pyridine-2-carboxylic acid (1,2,3,4-tetrahydronaphthalen-1-yl)amide]
8 | 0.02 | Cc1ccccc1CNC(=O)n1c(=O)c2c(C)cc(Cl)nc2n1C [Example 2, 6-Chloro-1,4-dimethyl-3-oxo-1,3-dihydro-pyrazolo[3,4-b]pyridine-2-carboxylic acid 2-methylbenzylamide]
9 | 0.019 | Cc1cc(Cl)nc2c1c(=O)n(C(=O)NCCc1cccs1)n2C [Example 4, 6-Chloro-1,4-dimethyl-3-oxo-1,3-dihydropyrazolo[3,4-b]pyridine-2-carboxylic acid (2-thiophen-2-ylethyl)amide]
10 | 0.011 | CCCCCCNC(=O)n1oc2nc(C)ccc2c1=O [Example 17, 6-Methyl-3-oxo-3H-isoxazolo[5,4-b]pyridine-2-carboxylic acid hexylamide]
11 | 0.01 | CCCCCCNC(=O)n1oc2nc(C(F)(F)F)ccc2c1=O [Example 16, 3-Oxo-6-trifluoromethyl-3H-isoxazolo[5,4-b]pyridine-2-carboxylic acid hexylamide]
12 | 0.008 | Cc1cc(Cl)nc2c1c(=O)n(C(=O)N[C@@H]1CCc3ccccc31)n2C [Example 14, 6-Chloro-1,4-dimethyl-3-oxo-1,3-dihydropyrazolo[3,4-b]pyridine-2-carboxylic acid (R)-indan-1-ylamide]
13 | 0.001 | CCCCCCNC(=O)n1c(=O)c2c(C)cc(Cl)nc2n1CCCC [Example 10, 1-Butyl-6-chloro-4-methyl-3-oxo-1,3-dihydropyrazolo[3,4-b]pyridine-2-carboxylic acid hexylamide]

Source: US8148395B2, “Azolopyridin-3-one derivatives as inhibitors of lipases and phospholipases” (Sanofi-Aventis, priority 2006, dated 2012)
